Test results published in ChEMBL document CHEMBL1148271, “3-(2-pyrrolidin-1-ylethyl)-5-(1,2,3,6-tetrahydropyridin-4-yl)-1H-indole derivatives as high affinity human 5-HT(1B/1D) ligands” (Bioorg Med Chem Lett, 2004).

How the values were obtained:
[1] = biological target: 5-hydroxytryptamine receptor 1B (Homo sapiens, UniProt P28222); assay: Binding affinity was evaluated at the cloned human 5-hydroxytryptamine 1B receptor
[2] = biological target: 5-hydroxytryptamine receptor 1D (Homo sapiens, UniProt P28221); assay: Binding affinity was evaluated at the cloned human 5-hydroxytryptamine 1D receptor
[3] = biological target: Serotonin 1 receptors; 5-HT1B & 5-HT1D (Homo sapiens) (UniProt P28222+P28221); assay: Binding affinity ratio was evaluated (5-HT1B / 5-HT1D receptor); format: protein assay

Sequence of 5-hydroxytryptamine receptor 1B (P28222 whole entry): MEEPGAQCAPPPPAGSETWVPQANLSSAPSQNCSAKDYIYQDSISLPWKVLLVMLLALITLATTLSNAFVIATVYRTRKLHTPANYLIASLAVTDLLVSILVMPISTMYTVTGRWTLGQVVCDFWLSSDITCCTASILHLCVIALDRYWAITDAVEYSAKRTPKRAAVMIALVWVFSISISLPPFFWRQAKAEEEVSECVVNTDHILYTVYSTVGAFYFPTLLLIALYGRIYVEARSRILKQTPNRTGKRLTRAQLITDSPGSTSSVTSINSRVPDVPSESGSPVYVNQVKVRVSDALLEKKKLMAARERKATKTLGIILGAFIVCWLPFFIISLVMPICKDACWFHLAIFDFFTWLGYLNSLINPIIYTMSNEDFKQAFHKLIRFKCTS
Sequence of 5-hydroxytryptamine receptor 1D (P28221 whole entry): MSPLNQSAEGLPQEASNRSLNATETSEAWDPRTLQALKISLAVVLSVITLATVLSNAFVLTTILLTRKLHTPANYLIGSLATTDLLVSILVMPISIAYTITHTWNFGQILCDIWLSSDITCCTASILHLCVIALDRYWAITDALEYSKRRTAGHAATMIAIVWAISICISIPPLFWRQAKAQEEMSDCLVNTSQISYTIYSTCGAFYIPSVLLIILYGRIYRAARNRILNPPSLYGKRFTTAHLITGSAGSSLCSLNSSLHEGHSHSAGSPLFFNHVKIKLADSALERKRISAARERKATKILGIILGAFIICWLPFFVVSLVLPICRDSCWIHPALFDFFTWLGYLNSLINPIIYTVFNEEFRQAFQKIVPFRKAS

Row | Compound | Ki [1] | Ki [2] | Ratio [3]
1 | O=S(=O)(c1ccc(Cl)cc1)N1CC=C(c2ccc3[nH]cc(CCN4CCCC4)c3c2)CC1 | 110 nM | 9.3 nM | 12
2 | CN(C)CCc1c[nH]c2ccc(C3=CCN(C)CC3)cc12 |  |  | 76
3 | O=S(=O)(c1ccccc1)N1CC=C(c2ccc3[nH]cc(CCN4CCCC4)c3c2)CC1 | 440 nM | 21 nM | 21
4 | O=C(NC12CC3CC(CC(C3)C1)C2)N1CC=C(c2ccc3[nH]cc(CCN4CCCC4)c3c2)CC1 | 64 nM | 29 nM | 2.2
5 | O=C(Nc1cccc2ccccc12)N1CC=C(c2ccc3[nH]cc(CCN4CCCC4)c3c2)CC1 | 65 nM | 8.8 nM | 7.6
6 | COc1ccc(S(=O)(=O)N2CC=C(c3ccc4[nH]cc(CCN5CCCC5)c4c3)CC2)cc1 | 140 nM | 11 nM | 13
7 | C1=C(c2ccc3[nH]cc(CCN4CCCC4)c3c2)CCNC1 | 760 nM | 74 nM | 10
8 | S=C(NC12CC3CC(CC(C3)C1)C2)N1CC=C(c2ccc3[nH]cc(CCN4CCCC4)c3c2)CC1 | 170 nM | 29 nM | 5.9
9 | O=S(=O)(c1cccc2ccccc12)N1CC=C(c2ccc3[nH]cc(CCN4CCCC4)c3c2)CC1 | 410 nM | 27 nM | 15
10 | Cc1ccc(S(=O)(=O)N2CC=C(c3ccc4[nH]cc(CCN5CCCC5)c4c3)CC2)cc1 | 140 nM | 12 nM | 12
11 | COc1ccc(NC(=S)N2CC=C(c3ccc4[nH]cc(CCN5CCCC5)c4c3)CC2)cc1 | 58 nM | 6.2 nM | 9.3
12 | COc1ccc(NC(=O)N2CC=C(c3ccc4[nH]cc(CCN5CCCC5)c4c3)CC2)cc1 | 44 nM | 7.8 nM | 5.6
